Experiments:
[1] = target: T1, ΔF508-CFTR (Homo sapiens, UniProt P13569, DEL508-508); assay: CFTR cell surface levels using HRP-tagged ΔF508-CFTR expressing CFBE cells, intrinsic corrector capacity; format: cell-based; conditions: HRP-tagged ΔF508-CFTR CFBE41o- cells, compounds alone (intrinsic corrector capacity), 20 hours at 33° C.; for % Activation: positive control 3 μM corrector; for EC50: read-out: EC50
T1 construct: host or cells: CFBE41o-, doxycycline-inducible
Method in brief: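 Here the cells express ΔF508-CFTR with horseradish peroxidase inserted in extracellular loop 4, so only rescued channel at the surface gives luminescent signal. Compounds act on their own, 20 h at the reduced temperature of 33 °C; values are percent activity relative to DMSO and a 3 μM corrector.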

[2] = target: T1, ΔF508-CFTR; assay: CFTR cell surface levels using HRP-tagged ΔF508-CFTR expressing CFBE cells, in the presence of a co-corrector; format: cell-based; conditions: HRP-tagged ΔF508-CFTR expressing CFBE cells, in the presence of 3 μM co-corrector; for EC50: read-out: EC50
Method in brief: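 Cells were seeded with 0.5 μg/mL doxycycline and held 68 h at 37 °C. Test compounds plus 3 μM co-corrector (final 0.1% DMSO) were then added for 20 h at 33 °C. Washed cells received HRP substrate, and luminescence was normalized between DMSO and 3 μM co-corrector controls.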

T1 sequence (P13569 with tags, fused parts or gaps DEL508-508): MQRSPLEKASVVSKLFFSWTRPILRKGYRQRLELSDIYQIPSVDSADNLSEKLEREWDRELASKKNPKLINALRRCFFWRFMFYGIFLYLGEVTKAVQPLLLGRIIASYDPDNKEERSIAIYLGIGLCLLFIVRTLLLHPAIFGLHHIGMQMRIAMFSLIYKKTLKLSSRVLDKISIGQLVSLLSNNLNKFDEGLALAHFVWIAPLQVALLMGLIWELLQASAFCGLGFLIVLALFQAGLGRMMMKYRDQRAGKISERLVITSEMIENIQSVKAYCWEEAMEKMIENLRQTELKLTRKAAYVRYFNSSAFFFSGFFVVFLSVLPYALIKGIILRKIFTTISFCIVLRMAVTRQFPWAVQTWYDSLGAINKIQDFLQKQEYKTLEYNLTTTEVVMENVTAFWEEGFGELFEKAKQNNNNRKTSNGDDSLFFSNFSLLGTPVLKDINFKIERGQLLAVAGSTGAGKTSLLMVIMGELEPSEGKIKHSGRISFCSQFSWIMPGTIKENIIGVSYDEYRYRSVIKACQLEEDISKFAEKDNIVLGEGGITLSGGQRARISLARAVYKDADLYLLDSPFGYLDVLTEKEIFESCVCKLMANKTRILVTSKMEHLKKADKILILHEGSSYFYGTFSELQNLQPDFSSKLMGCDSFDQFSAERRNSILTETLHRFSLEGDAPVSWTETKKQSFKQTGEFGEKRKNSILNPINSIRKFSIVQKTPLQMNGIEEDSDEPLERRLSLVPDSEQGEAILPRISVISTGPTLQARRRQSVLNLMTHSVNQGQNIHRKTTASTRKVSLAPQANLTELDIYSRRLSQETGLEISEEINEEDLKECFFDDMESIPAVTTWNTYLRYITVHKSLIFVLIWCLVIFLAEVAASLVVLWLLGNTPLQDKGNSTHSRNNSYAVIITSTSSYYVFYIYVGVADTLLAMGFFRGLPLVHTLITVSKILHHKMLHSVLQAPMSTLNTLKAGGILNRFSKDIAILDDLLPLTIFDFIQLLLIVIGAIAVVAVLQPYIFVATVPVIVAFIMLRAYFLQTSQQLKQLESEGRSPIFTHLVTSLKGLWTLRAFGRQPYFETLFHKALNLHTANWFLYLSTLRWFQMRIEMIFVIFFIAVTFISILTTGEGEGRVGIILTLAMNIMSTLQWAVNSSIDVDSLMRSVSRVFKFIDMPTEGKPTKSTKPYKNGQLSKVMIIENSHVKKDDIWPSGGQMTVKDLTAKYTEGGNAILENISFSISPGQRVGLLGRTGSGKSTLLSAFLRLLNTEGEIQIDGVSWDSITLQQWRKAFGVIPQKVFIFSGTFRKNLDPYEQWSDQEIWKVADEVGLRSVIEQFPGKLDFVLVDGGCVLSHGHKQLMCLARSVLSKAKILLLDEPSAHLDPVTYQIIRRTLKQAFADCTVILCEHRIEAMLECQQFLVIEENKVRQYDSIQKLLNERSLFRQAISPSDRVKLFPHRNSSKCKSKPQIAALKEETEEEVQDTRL

SMILES	% Activation [1] [%]	EC50 [1] [nM]	% Activation [2] [%]	EC50 [2] [nM]
Cc1nn(-c2ccccc2)c2nc(C(=O)O)cc(-c3ccc(N4CCN(C(C)(C)C)CC4)cc3)c12 [compound 60, 4-[4-(4-tert-butylpiperazin-1-yl)phenyl]-3-methyl-1-phenyl-1H-pyrazolo[3,4-b]pyridine-6-carboxylic acid]	14.9	> 10000	143.1	> 10000
COc1ccc(-n2nc(C)c3c(-c4ccc(N5CCOCC5)cc4)cc(C(=O)O)nc32)cn1 [compound 61, 1-(6-methoxypyridin-3-yl)-3-methyl-4-[4-(morpholin-4-yl)phenyl]-1H-pyrazolo[3,4-b]pyridine-6-carboxylic acid]	96.05	3340	253.6	2350
CC(C)c1nn(C2CCCCC2)c2nc(C(=O)O)cc(-c3cnc(N(C)C)nc3)c12 [compound 62, 1-cyclohexyl-4-[2-(dimethylamino)pyrimidin-5-yl]-3-(propan-2-yl)-1H-pyrazolo[3,4-b]pyridine-6-carboxylic acid]	159.65	2630	349.9	1690
CC(C)(O)c1nn(-c2ccccc2)c2nc(C(=O)O)cc(-c3ccc(N4CCOCC4)cc3)c12 [compound 63, 3-(2-hydroxypropan-2-yl)-4-[4-(morpholin-4-yl)phenyl]-1-phenyl-1H-pyrazolo[3,4-b]pyridine-6-carboxylic acid]	108.18	3340	294.35	3340
NC(=O)c1nn(-c2ccccc2)c2nc(C(=O)O)cc(-c3ccc(N4CCOCC4)cc3)c12 [compound 64, 3-carbamoyl-4-[4-(morpholin-4-yl)phenyl]-1-phenyl-1H-pyrazolo[3,4-b]pyridine-6-carboxylic acid]	3.754	> 10000	113.3	> 10000
Cc1nn(C2CCCCC2)c2nc(C(=O)O)cc(-c3cnc(N4CCOCC4)nc3)c12 [compound 65, 1-cyclohexyl-3-methyl-4-[2-(morpholin-4-yl)pyrimidin-5-yl]-1H-pyrazolo[3,4-b]pyridine-6-carboxylic acid]	103.02	3340	258.2	2310
Cc1nn(-c2ccccc2)c2nc(C(=O)O)cc(-c3ccc(N4CCOCC4)c(Br)c3)c12 [compound 66, 4-[3-bromo-4-(morpholin-4-yl)phenyl]-3-methyl-1-phenyl-1H-pyrazolo[3,4-b]pyridine-6-carboxylic acid]	13.06	> 10000	131.3	> 10000
CC(C)c1nn(C2CCCC2)c2nc(C(=O)O)cc(-c3cnc(N(C)C)nc3)c12 [compound 67, 1-cyclopentyl-4-[2-(dimethylamino)pyrimidin-5-yl]-3-(propan-2-yl)-1H-pyrazolo[3,4-b]pyridine-6-carboxylic acid]	117.6	1590	280.35	1260
CC(C)c1nn(C2CCCOC2)c2nc(C(=O)O)cc(-c3ccc(N4CCOCC4)cc3)c12 (stereo not shown) [compound 68, 4-[4-(morpholin-4-yl)phenyl]-1-(oxan-3-yl)-3-(propan-2-yl)-1H-pyrazolo[3,4-b]pyridine-6-carboxylic acid]	106.65	1740	274.9	1390
CC(C)c1nn(C2CCCC2)c2nc(C(=O)O)cc(-c3ccc(N4CCOCC4)cc3)c12 [compound 69, 1-cyclopentyl-4-[4-(morpholin-4-yl)phenyl]-3-(propan-2-yl)-1H-pyrazolo[3,4-b]pyridine-6-carboxylic acid]	150.25	970	366.8	993
COC(=O)N1CCN(c2ccc(-c3cc(C(=O)O)nc4c3c(C)nn4-c3ccccc3)cc2)CC1 [compound 70, 4-{4-[4-(methoxycarbonyl)piperazin-1-yl]phenyl}-3-methyl-1-phenyl-1H-pyrazolo[3,4-b]pyridine-6-carboxylic acid]	160.8	910	355.6	649
CC(=O)N1CCC(n2nc(C(C)C)c3c(-c4ccc(N5CCOCC5)cc4)cc(C(=O)O)nc32)CC1 [compound 71, 1-(1-acetylpiperidin-4-yl)-4-[4-(morpholin-4-yl)phenyl]-3-(propan-2-yl)-1H-pyrazolo[3,4-b]pyridine-6-carboxylic acid]	17.23	> 10000	126.8	> 10000
Cc1nn(-c2ccccc2)c2nc(C(=O)O)cc(-c3ccc(N4CC(N(C)C)C4)cc3)c12 [compound 72]	91.87	2250	308.1	3340
Cc1nn(-c2ccccc2)c2nc(C(=O)O)cc(-c3ccc(N4CC(C)(C)C4)cc3)c12 [compound 73, 4-[4-(3,3-dimethylazetidin-1-yl)phenyl]-3-methyl-1-phenyl-1H-pyrazolo[3,4-b]pyridine-6-carboxylic acid]	110.1	3170	303.9	3250
Cc1nn(C2CCCCC2)c2nc(C(=O)O)cc(-c3ccc(N4CCOCC4)nc3)c12 [compound 74, 1-cyclohexyl-3-methyl-4-[6-(morpholin-4-yl)pyridin-3-yl]-1H-pyrazolo[3,4-b]pyridine-6-carboxylic acid]	116.7	2560	257.2	1480
Cc1nn(C2CCCCC2)c2nc(C(=O)O)cc(-c3cnc(N(C)C)nc3)c12 [compound 75, 1-cyclohexyl-4-[2-(dimethylamino)pyrimidin-5-yl]-3-methyl-1H-pyrazolo[3,4-b]pyridine-6-carboxylic acid]	117.1	3130	254	1150
CC(C)(C)OC(=O)N1CCCC1c1nn(-c2ccccc2)c2nc(C(=O)O)cc(-c3ccc(N4CCOCC4)cc3)c12 (stereo not shown) [compound 76]	117.9	835	244.2	430
CC(C)c1nn(C2CCCC2)c2nc(C(=O)O)cc(-c3ccc(N4CCOCC4)nc3)c12 [compound 77, 1-cyclopentyl-4-[6-(morpholin-4-yl)pyridin-3-yl]-3-(propan-2-yl)-1H-pyrazolo[3,4-b]pyridine-6-carboxylic acid]	139.5	1170	343.4	1110
CC(=O)N1CC(c2nn(-c3ccccc3)c3nc(C(=O)O)cc(-c4ccc(N5CCOCC5)cc4)c23)C1 [compound 78, 3-(1-acetylazetidin-3-yl)-4-[4-(morpholin-4-yl)phenyl]-1-phenyl-1H-pyrazolo[3,4-b]pyridine-6-carboxylic acid]	10.784	> 10000	132	> 10000
CC(C)c1nn(-c2ccccc2)c2nc(C(=O)O)cc(-c3cnc(N4CCOCC4)nc3)c12 [compound 79, 4-[2-(morpholin-4-yl)pyrimidin-5-yl]-1-phenyl-3-(propan-2-yl)-1H-pyrazolo[3,4-b]pyridine-6-carboxylic acid]	195.9	697	256.45	5280
CC(C)c1nn(C2CCCCC2)c2nc(C(=O)O)cc(-c3cnc(N4CCOCC4)nc3)c12 [compound 80, 1-cyclohexyl-4-[2-(morpholin-4-yl)pyrimidin-5-yl]-3-(propan-2-yl)-1H-pyrazolo[3,4-b]pyridine-6-carboxylic acid]	184.8	611	341.92	2930
CC(C)c1nn(C2CCCCC2)c2nc(C(=O)O)cc(-c3ccc(N4CCOCC4)nc3)c12 [compound 81, 1-cyclohexyl-4-[6-(morpholin-4-yl)pyridin-3-yl]-3-(propan-2-yl)-1H-pyrazolo[3,4-b]pyridine-6-carboxylic acid]	193.6	744	398.25	570
Cc1nn(-c2ccccc2)c2nc(C(=O)O)cc(-c3ccc(N4CCN(CCC(F)(F)F)CC4)cc3)c12 [compound 82, 3-methyl-1-phenyl-4-{4-[4-(3,3,3-trifluoropropyl)piperazin-1-yl]phenyl}-1H-pyrazolo[3,4-b]pyridine-6-carboxylic acid]	135.95	1010	335.65	971
CC(C)c1nn(C2CCCC2)c2nc(C(=O)O)cc(-c3ccc(N(C)C)nc3)c12 [compound 83, 1-cyclopentyl-4-[6-(dimethylamino)pyridin-3-yl]-3-(propan-2-yl)-1H-pyrazolo[3,4-b]pyridine-6-carboxylic acid]	142.25	1470	332.65	1050
CC(C)c1nn(-c2cccc(N(C)C)c2)c2nc(C(=O)O)cc(-c3cnc(N4CCOCC4)nc3)c12 [compound 84, 1-[3-(dimethylamino)phenyl]-4-[2-(morpholin-4-yl)pyrimidin-5-yl]-3-(propan-2-yl)-1H-pyrazolo[3,4-b]pyridine-6-carboxylic acid]	289.83	829	541.12	734

From patent US9796711B2, “Substituted pyrazolo[3,4-b]pyridin-6-carboxylic acids and method of use” (AbbVie S.àr.l., priority 2015, dated 2017)
